Source: patent US8999891B2, “Method for controlling weeds in turf” (Dow AgroSciences LLC, priority 2013, dated 2015)

How the values were obtained:
White Clover (TRFRE) = assay: Greenhouse post-emergence weed control, visual percent control; type: in vivo, Trifolium repens; details: 1 week after treatment, florasulam 0.001 g ai/ha, fluroxypyr 0.01 g ae/ha, 2,4-D 0.11 g ae/ha, alone or in the mixture, 0 = no control, 100 = complete kill
Description: Studies were applied post-emergence to broadleaf weeds reared from seed in 5″ square pots in 80% mineral/20% grit field soil. Stage of growth of species at application: EPHSU in the 3 to 5 leaf stage and TRFRE in the 3rd tri-foliate stage. Post-emergence trial design was a replicated block, one species per pot, 4 replicate pots per treatment. Post-emergence applications were made to the pot with a tracksprayer calibrated to 187 liters per hectare (L/ha), 40 pounds per square inch (PSI) at 1.9 miles per hour (mph) using an 8003E Teejet nozzle covering both soil and foliage. Trial was sub-irrigated daily. Active weed growth was maintained throughout the study period. Weed control of each species in the post-emergence study was assessed at 1, 2 and 3 weeks after treatment. Control was determined visually by comparing treated and untreated pots and scored on a 0 to 100 percent scale where 0 corresponds to no control and 100 corresponds to complete kill.
In the foregoing examples, the following equation was used to calculate the expected activity of mixtures containing three herbicidal active ingredients:
(§1) [formula] A=observed efficacy of a first active ingredient at the same concentration as used in the mixture. B=observed efficacy of a second active ingredient B at the same concentration as used in the mixture. C=observed efficacy of a third active ingredient C at the same concentration as used in the mixture. The following abbreviations are used in the tables: g ai/ha=grams active ingredient per hectare g ae/ha=grams acid equivalent per hectare DAA=days after application.

Ground Ivy (GLEHE) = assay: Field study in turf, average % weed control; type: in vivo, Glechoma hederacea
Description: (§2) Replicated applications were made to small plots (i.e. 5′×5′, 3′×10′) using a CO2 backpack sprayer. Florasulam SC (EF-1343), fluoroxypyr (Starane® Ultra) and 2,4-D (DMA® 4) are produced by Dow AgroSciences LLC, Indianapolis, Ind. Applications at each site were made at typical postemergent herbicide timing for that particular study location. Applications were generally timed for peak dandelion bloom in the northern cool-season turf market and throughout the year in the warm-season turf market where winter and summer annual and perennial weeds are targeted. Weed control evaluations were made as percent weed cover per plot and converted to percent control based on weed levels in the untreated control. Evaluations were made at various timing after application for eight to ten weeks.
as §1

Dandelion (TAROF) = assay: Field study in turf, average % weed control; type: in vivo, Taraxacum officinale; details: 55 DAA, florasulam 5.2 g ai/ha, fluroxypyr 52.9 g ae/ha, 2,4-D 520 g ae/ha, alone or in the mixture
Description: as §2, §1

White Cover (TRFRE) = assay: Field study in turf, average % weed control; type: in vivo, Trifolium repens; details: 62 DAA, florasulam 5.2 g ai/ha, fluroxypyr 52.9 g ae/ha, 2,4-D 520 g ae/ha, alone or in the mixture
Description: as §2, §1

[1] = 28 DAA, florasulam 2.3 g ai/ha, fluroxypyr 26.5 g ae/ha, 2,4-D 260.6 g ae/ha alone (260.0 in the mixture)
[2] = 56 DAA, florasulam 5.2 g ai/ha, fluroxypyr 52.9 g ae/ha, 2,4-D 520 g ae/ha, alone or in the mixture

SMILES | Observed percent control (White Clover (TRFRE)) [%] | Observed Average % Weed Control (Ground Ivy (GLEHE); [1]) [%] | Observed Average % Weed Control (Ground Ivy (GLEHE); [2]) [%] | Observed Average % Weed Control (Dandelion (TAROF)) [%] | Observed Average % Weed Control (White Cover (TRFRE)) [%]
Nc1c(Cl)c(F)nc(OCC(=O)O)c1Cl [Fluroxypyr, [(4-amino-3,5-dichloro-6-fluoro-2-pyridinyl)oxy]acetic acid] | 35 | 0.0 | 0.0 | 14.3 | 31.3
COc1ncc(F)c2nc(S(=O)(=O)Nc3c(F)cccc3F)nn12 [Florasulam, 2′,6′,8-trifluoro-5-methoxy[1,2,4]triazolo[1,5-c]pyrimidine-2-sulfonanilide] | 10.3 | 0.0 | 0.0 | 25.0 | 23.8
O=C(O)COc1ccc(Cl)cc1Cl [2,4-D, (2,4-dichlorophenoxy)acetic acid] | 1.7 | 41.0 | 41.7 | 45.6 | 20.0
